Measured values as given in patent US8936793B2, “Synthetic archaeal glycolipid adjuvants” (National Research Council of Canada, priority 2006, dated 2015).

Tests used:
[1] = tested on: antigen specific EG.7 targets; assay: CTL activity in splenocytes of immunized mice, Cr51-assay; assay type: in vivo, C57BL/6 mice; conditions: 15 μg OVA s.c. 0 and 3 weeks; spleens 7 weeks after first immunization
Description: To determine adjuvant activity, various synthetic archaeosomes with OVA entrapped (OVA-archaeosomes) were used to immunize female C57BL/6 mice on days 0 and 21 (6-8 weeks old on first injection). Injections were subcutaneous at the tail base with 0.1 ml PBS containing 15 μg OVA entrapped in 0.2-0.63 mg lipids. Blood samples were collected from the tail vein for anti-OVA IgG/IgM antibody titration done by ELISA (13). In some cases faecal extracts were assayed for IgA (and IgG) to assess mucosal responses following systemic immunizations. Fresh faeces (about 30 mg dry weight) were collected from 4 mice/group, and extracted by adding 0.5 ml of phosphate buffered saline (pH 7.0) containing 10% fetal calf serum and 0.1% sodium azide. Homogenized samples were centrifuged and Elisa measured anti OVA antibody in supernatants. Spleens were collected to determine CTL activity using the Cr^51-assay with specific and non-specific targets EG.7 and EL-4, respectively (14). In Elispot assays antigen-specific CD8^+ T cell activity was measured in splenic cells from immunized mice by determining the number of SIINFEKL stimulated IFN-γ-secreting cells per 5×10^5 splenic cells (15).

[2] = tested on: Listeria monocytogenes (LM)-OVA construct; assay: Protection against LM-OVA challenge after vaccination, splenic CFU; assay type: in vivo; conditions: glyco-archaeol/DPPG/chol (25/55/20, mol %), FIG. 13
Description: FIG. 13 illustrates protection against LM-OVA challenge after vaccination with OVA-adjuvant combinations. C57BL/6J mice were immunized on day 0 and 21 with 15 ug OVA entrapped in various synthetic archaeosomes composed of the respective synthetic glyco-archaeol/DPPG/chol (25/55/20, mol %). At 8 weeks, mice were challenged with 10^4 intravenous dose of Listeria monocytogenes (LM)-OVA construct. Mice were euthanized 3 days later. Mean±SEM of splenic colony forming units (CFU) is shown for each group.

[3] = tested on: antigen-specific CD8+ T cell; assay: Antigen-specific CD8+ T cell activity in blood by tetramer assay; assay type: in vivo, C57BL/6J mice; conditions: glyco-archaeol/DPPG/chol (25/55/20, mol %); data not shown
Description: Mice vaccinated with synthetic archaeosomes containing an appropriate antigen were protected from infection (FIG. 13). […] The lower CD8^+ T cell response observed for this latter archaeosome previously appears to be in part due to the shorter period from first injection to assay in FIG. 7C. In this example (FIG. 13), the antigen-specific CD8^+ T cell activity was measured in blood by tetramer assay and found to be about 30% as high in the maltotriose-A group compared to the gentiotriose-A group (data not shown).

[4] = tested on: Macrophages J774A.1; assay: Up-regulation of co-stimulatory molecule CD80 on APCs, flow cytometry; assay type: cell-based; conditions: 25 μg liposomes or archaeosomes 48 h; LPS 10 μg 24 h; anti-CD80-PE
Description: Macrophages J774A.1 were incubated for 48 h with 25 μg of archaeosomes prior to staining and analysis by flow cytometry (Table 13). […] Immuno-activity was clearly ascribed to the synthetic glyco-archaeal lipid.

Molecule	CTL adjuvant activity, FIG. 3 [1]	protection from LM-OVA infection [2]	antigen-specific CD8+ T cell activity in blood, % as high as the gentiotriose-A group [3]	Mean fluorescence Intensity CD80 [4]
CC(C)CCC[C@@H](C)CCC[C@@H](C)CCC[C@@H](C)CCOC[C@H](CO[C@@H]1O[C@H](CO)[C@@H](O[C@H]2O[C@H](CO)[C@@H](O[C@H]3O[C@H](CO)[C@@H](O)[C@H](O)[C@H]3O)[C@H](O)[C@H]2O)[C@H](O)[C@H]1O)OCC[C@H](C)CCC[C@H](C)CCC[C@H](C)CCCC(C)C [maltotriose-A]	best adjuvant activity	striking protection	about 30%	–
Lipopolysaccharide	–	–	–	33.2
